From patent US20060003965A1, “N-acetyl-d-glucosamine (nag) supplemented food products and beverages” (priority 2002, published 2006)

Assays:
[1] = Stability in simulated gastric fluid (SGF); assay type: in vitro ADME; conditions: 1 g in SGF with pepsin, pH about 1.2, 37° C., sampled at 0, 5, 15 and 60 minutes
Procedure: To test the availability of NAG in the stomach, a simulated stomach environment was constructed, and a known concentration of NAG was added to simulated gastric fluid (SGF) and maintained at conditions simulating the stomach. If NAG is degraded or derivatized in the stomach, the NAG concentration will decrease. If the concentration of NAG remains the same, it is likely that the NAG is available to the body.
SGF was prepared based on a 1995 United States Pharmacopoeia (USP) monograph. An artificial stomach environment was simulated according to generally accepted practice (see Consumers Union website, 101 Truman Ave., Yonkers, N.Y. 10703-1057). To prepare simulated gastric fluid, 2.0 g of NaCl and 3.2 g of pepsin were dissolved in 7.0 mL of hydrochloric acid (concentrated) and sufficient water to make a 1000 mL solution.
NAG samples were prepared as follows. […]
Before introduction of samples into the SGF, a sample of the SGF was analyzed as a blank, to determine the baseline. Upon addition of the NAG to the SGF, a sample was immediately analyzed to determine the concentration of NAG at time zero. After introduction of NAG into the SGF, samples were pulled and analyzed at 5 minutes, 15 minutes, and 60 minutes to provide a profile of NAG concentration in the simulated stomach, and analyzed for the concentration of NAG.

[2] = NAG recovery following heating, acid extraction method, HPLC; assay type: physicochemical; conditions: all foods and beverages of Table 14
Procedure: Food samples were homogenized prior to analysis. Where possible, samples were frozen or dried and ground. Baked goods were crumbled and mixed to produce a homogeneous material. Suitable blanks (samples with no added NAG) of each food type were analyzed to assess interferences. Mass changes between unheated ingredient mixtures and baked final products were tracked to permit accurate recovery calculations.
A food or beverage sample as described in the preceding examples containing 5 to 20 mg of N-acetylglucosamine (NAG) was dispersed in 25 g of 0.1 N HCl in a 50-mL polypropylene centrifuge tube and capped tightly. The sample was mixed for 30 seconds using a vortex mixer, then placed in a water bath at 37° C. The sample was removed from the water bath at 15-minute intervals and mixed for 30 seconds on a vortex mixer and then returned to the water bath. This cycle was repeated until the sample had been in the water bath for one hour. After heating, the sample was mixed for 30 seconds on a vortex mixer, then centrifuged for 10 minutes to separate the liquid and solid phases. Fats, oils or lipids in the sample formed a third layer at the top of the tube. […]
NAG recovery was determined using high performance liquid chromatography (HPLC) using a combination of refractive index and UV (195 nm) detection. […]

[3] = pH of supplemented tea before and after heating; assay type: physicochemical; conditions: tea with 5.7 g per quart; for Initial pH: before heating
Procedure: Tea made from Lipton® instant tea mix was used as the basis for incorporation of samples. To prepare the tea, the following recipe was used: 2.69 g instant tea, 5.7 g GLCN or NAG (where applicable) then add water to one quart. Tea was prepared for sensory testing as follows:
Batch 2. Tea+glucosamine (pH 5-6) [GLCN from fungal biomass, see batch 2 Example 1]
Batch 3. Tea+NAG (pH 5-6) (N-Acetyl-D-glucosamine, Catalog # A-102-2, Ferro Pfanstiehl, Waukegan, Ill.)
Batch 4. Tea+glucosamine (pH 5-6) heated to 71° C. for 20 minutes
Batch 5. Tea+glucosamine heated (pH 5-6) to 90° C. for 20 seconds, flash cooled in ice water bath
Batch 6. Tea+glucosamine (pH 5-6) boiled on stove for 5 minutes, flash cooled in ice water bath
Batch 7. Tea+NAG (pH 5-6) heated to 71° C. for 20 minutes
Batch 8. Tea+NAG (pH 5-6) heated to 90° C. for 20 seconds, flash cooled in ice water bath
Batch 9. Tea+NAG (pH 5-6) boiled on stove for 5 minutes, flash cooled in ice water bath

[4] = heated to 71° C. for 20 minutes
[5] = heated to 90° C. for 20 seconds

| Loss of NAG in simulated gastric fluid [1] | amount of NAG recovered following heating, range over Table 14 samples [2] | Initial pH [3] | pH after heating ([3]; boiled 5 minutes) | pH after heating [3, 4] | pH after heating [3, 5] | SMILES |
| --- | --- | --- | --- | --- | --- | --- |
| no significant loss of NAG | 77%-100% | 5.46 | 5.22 | 5.40 | 5.31 | CC(=O)N[C@H]1C(O)O[C@H](CO)[C@@H](O)[C@@H]1O (stereo partly drawn) [NAG, N-Acetyl-D-glucosamine] |
|  |  | 5.09 | 4.87 | 5.13 | 5.00 | Cl.N[C@H]1C(O)O[C@H](CO)[C@@H](O)[C@@H]1O (stereo partly shown) [Fungal GLCN, glucosamine hydrochloride, reference compound] |
